Measurements taken from ChEMBL document CHEMBL1154899, “Synthesis and biological evaluation of caffeic acid 3,4-dihydroxyphenethyl ester” (J Nat Prod, 2010).

Tests used:
Type in all cases: functional
DU-145 [1] = experiment: Antiproliferative activity against human DU145 cells assessed as cell growth at 5 uM by SRB assay; details: read-out: Activity
NCI/ADR-RES = experiment: Antiproliferative activity against human NCI/ADR-RES cells assessed as cell growth at 50 uM by SRB assay; details: read-out: Activity
HCC 2998 [2] = experiment: Antiproliferative activity against human HCC2998 cells assessed as cell growth at 50 uM by SRB assay; details: read-out: Activity
SK-MEL-5 = experiment: Antiproliferative activity against human SK-MEL-5 cells assessed as cell growth at 50 uM by SRB assay; details: read-out: Activity
A498 [3] = experiment: Antiproliferative activity against human A498 cells assessed as cell growth at 500 uM by SRB assay; details: read-out: Activity
MOLT-4 = experiment: Antiproliferative activity against human MOLT4 cells assessed as cell growth at 5 uM by SRB assay; details: read-out: Activity
SW-620 = experiment: Antiproliferative activity against human SW620 cells assessed as cell growth at 5 uM by SRB assay; details: read-out: Activity
A549 = experiment: Antiproliferative activity against human A549 cells assessed as cell growth at 5 uM by SRB assay; details: read-out: Activity
HCC 2998 [4] = experiment: Antiproliferative activity against human HCC2998 cells by SRB assay
[5] = Antiproliferative activity against human […] cells assessed as cell growth at 0.5 uM by SRB assay; details: read-out: Activity
HCT-15 [6] = experiment: Antiproliferative activity against human HCT15 cells assessed as cell growth at 500 uM by SRB assay; details: read-out: Activity
SK-OV-3 = experiment: Antiproliferative activity against human SKOV3 cells assessed as cell growth at 5 uM by SRB assay; details: read-out: Activity
LOX IMVI = experiment: Antiproliferative activity against human LOXIMVI cells by SRB assay
NCI-H522 [7] = experiment: Antiproliferative activity against human NCI-H522 cells by SRB assay
SF-295 [8] = experiment: Antiproliferative activity against human SF295 cells by SRB assay
CCRF-CEM [9] = experiment: Antiproliferative activity against human CCRF-CEM cells assessed as cell growth at […] by SRB assay; details: read-out: Activity
CCRF-CEM [10] = experiment: Antiproliferative activity against human CCRF-CEM cells assessed as cell growth at 5 uM by SRB assay; details: read-out: Activity
BT-549 [11] = experiment: Antiproliferative activity against human BT549 cells assessed as cell growth at 5 uM by SRB assay; details: read-out: Activity
HL-60(TB) = experiment: Antiproliferative activity against human HL-60(TB) cells assessed as cell growth at 50 uM by SRB assay; details: read-out: Activity
OVCAR-4 = experiment: Antiproliferative activity against human OVCAR4 cells assessed as cell growth at 5 uM by SRB assay; details: read-out: Activity
HCT-116 = experiment: Antiproliferative activity against human HCT116 cells assessed as cell growth at 0.5 uM by SRB assay; details: read-out: Activity
SK-MEL-28 [12] = experiment: Antiproliferative activity against human SK-MEL-28 cells assessed as cell growth at 50 uM by SRB assay; details: read-out: Activity
UACC-62 = experiment: Antiproliferative activity against human UACC62 cells assessed as cell growth at 5 uM by SRB assay; details: read-out: Activity
SR = experiment: Antiproliferative activity against human SR cells assessed as cell growth at 5 uM by SRB assay; details: read-out: Activity
NCI-H522 [13] = experiment: Antiproliferative activity against human NCI-H522 cells assessed as cell growth at 0.5 uM by SRB assay; details: read-out: Activity
UO-31 = experiment: Antiproliferative activity against human UO31 cells assessed as cell growth at 5 uM by SRB assay; details: read-out: Activity
786-0 = experiment: Antiproliferative activity against human 786-0 cells assessed as cell growth at 500 uM by SRB assay; details: read-out: Activity
ACHN [14] = experiment: Antiproliferative activity against human ACHN cells by SRB assay
KM12 = experiment: Antiproliferative activity against human KM12 cells assessed as cell growth at 50 uM by SRB assay; details: read-out: Activity
SK-MEL-28 [15] = experiment: Antiproliferative activity against human SK-MEL-28 cells assessed as cell growth at 5 uM by SRB assay; details: read-out: Activity
HCT-15 [16] = experiment: Antiproliferative activity against human HCT15 cells assessed as cell growth at 5 uM by SRB assay; details: read-out: Activity
MCF7 = experiment: Antiproliferative activity against human MCF7 cells assessed as cell growth at 0.5 uM by SRB assay; details: read-out: Activity
SN12C = experiment: Antiproliferative activity against human SN12C cells by SRB assay
SF-295 [17] = experiment: Antiproliferative activity against human SF295 cells assessed as cell growth at 50 uM by SRB assay; details: read-out: Activity
NCI-H23 = experiment: Antiproliferative activity against human NCI-H23 cells assessed as cell growth at 500 uM by SRB assay; details: read-out: Activity
MDA-MB-231 = experiment: Antiproliferative activity against human MDA-MB-231 cells assessed as cell growth at 5 uM by SRB assay; details: read-out: Activity
DU-145 [18] = experiment: Antiproliferative activity against human DU145 cells assessed as cell growth at 0.5 uM by SRB assay; details: read-out: Activity
HCT-15 [19] = experiment: Antiproliferative activity against human HCT15 cells assessed as cell growth at 0.5 uM by SRB assay; details: read-out: Activity
HCC 2998 [20] = experiment: Antiproliferative activity against human HCC2998 cells assessed as cell growth at 500 uM by SRB assay; details: read-out: Activity
ACHN [21] = experiment: Antiproliferative activity against human ACHN cells assessed as cell growth at 0.5 uM by SRB assay; details: read-out: Activity
BT-549 [22] = experiment: Antiproliferative activity against human BT549 cells assessed as cell growth at 50 uM by SRB assay; details: read-out: Activity
OVCAR-5 = experiment: Antiproliferative activity against human OVCAR5 cells at 5 uM by SRB assay
A498 [23] = experiment: Antiproliferative activity against human A498 cells by SRB assay
[24] = read-out: LC50 (the source's name)
[25] = read-out: pLC50 (the source's name) (converted)

Q: For `O=C(/C=C/c1ccc(O)c(O)c1)OCCc1ccc(O)c(O)c1`, which growth at 5 µM (DU-145 [1]) is on record?
A: 101%

Q: What about the growth at 50 µM (NCI/ADR-RES) of the same molecule?
A: 99%

Q: What about the growth at 50 µM (HCC 2998 [2]) of the same molecule?
A: 98%

Q: And the growth at 50 µM (SK-MEL-5)?
A: 102%

Q: And the growth at 500 µM (A498 [3])?
A: 68%

Q: And the growth at 5 µM (MOLT-4)?
A: 97%

Q: What about the growth at 5 µM (SW-620) of the same molecule?
A: 95%

Q: What about the growth at 5 µM (A549) of the same molecule?
A: 97%

Q: What about the GI50 (HCC 2998 [4]; read-out: GI50) of the same molecule?
A: 14.6 µM

Q: And the CC50 (HCC 2998 [4]; [24])?
A: > 50 µM

Q: What about the TGI (HCC 2998 [4]; read-out: TGI) of the same molecule?
A: > 50 µM

Q: And the GI50 (HCC 2998 [4]; read-out: pGI50 (converted))?
A: 14.5 µM

Q: What about the CC50 (HCC 2998 [4]; [25]) of the same molecule?
A: > 50.1 µM

Q: What about the TGI (HCC 2998 [4]; read-out: pTGI) of the same molecule?
A: > 50.1 µM

Q: And the growth at 0.5 µM [5]?
A: 86%

Q: And the growth at 500 µM (HCT-15 [6])?
A: 38%

Q: What about the growth at 5 µM (SK-OV-3) of the same molecule?
A: 96%

Q: And the GI50 (LOX IMVI; read-out: GI50)?
A: 6.38 µM

Q: What about the CC50 (LOX IMVI; [24]) of the same molecule?
A: > 50 µM

Q: What about the TGI (LOX IMVI; read-out: TGI) of the same molecule?
A: 35.1 µM

Q: What about the GI50 (LOX IMVI; read-out: pGI50 (converted)) of the same molecule?
A: 6.31 µM

Q: What about the CC50 (LOX IMVI; [25]) of the same molecule?
A: > 50.1 µM

Q: And the TGI (LOX IMVI; read-out: pTGI (converted))?
A: 35.5 µM

Q: And the GI50 (NCI-H522 [7]; read-out: GI50)?
A: 1.26 µM

Q: And the CC50 (NCI-H522 [7]; [24])?
A: > 50 µM

Q: What about the TGI (NCI-H522 [7]; read-out: TGI) of the same molecule?
A: 8.61 µM

Q: What about the GI50 (NCI-H522 [7]; read-out: pGI50 (converted)) of the same molecule?
A: 1.26 µM

Q: And the CC50 (NCI-H522 [7]; [25])?
A: > 50.1 µM

Q: And the TGI (NCI-H522 [7]; read-out: pTGI (converted))?
A: 8.91 µM

Q: And the GI50 (SF-295 [8]; read-out: GI50)?
A: 16.1 µM

Q: And the CC50 (SF-295 [8]; [24])?
A: > 50 µM

Q: And the TGI (SF-295 [8]; read-out: TGI)?
A: > 50 µM

Q: And the GI50 (SF-295 [8]; read-out: pGI50 (converted))?
A: 16.2 µM

Q: What about the CC50 (SF-295 [8]; [25]) of the same molecule?
A: > 50.1 µM

Q: And the TGI (SF-295 [8]; read-out: pTGI)?
A: > 50.1 µM

Q: And the growth (CCRF-CEM [9])?
A: -44%

Q: What about the growth at 5 µM (CCRF-CEM [10]) of the same molecule?
A: 99%

Q: And the growth at 5 µM (BT-549 [11])?
A: 100%

Q: And the growth at 50 µM (HL-60(TB))?
A: 82%

Q: And the growth at 5 µM (OVCAR-4)?
A: 95%

Q: And the growth at 0.5 µM (HCT-116)?
A: 100%

Q: And the growth at 50 µM (SK-MEL-28 [12])?
A: 93%

Q: What about the growth at 5 µM (UACC-62) of the same molecule?
A: 94%

Q: What about the growth at 5 µM (SR) of the same molecule?
A: 81%

Q: What about the growth at 0.5 µM (NCI-H522 [13]) of the same molecule?
A: 74%

Q: And the growth at 5 µM (UO-31)?
A: 93%

Q: What about the growth at 500 µM (786-0) of the same molecule?
A: 81%

Q: What about the GI50 (ACHN [14]; read-out: GI50) of the same molecule?
A: 2.94 µM

Q: And the CC50 (ACHN [14]; [24])?
A: > 50 µM

Q: What about the TGI (ACHN [14]; read-out: TGI) of the same molecule?
A: 38.7 µM

Q: And the GI50 (ACHN [14]; read-out: pGI50 (converted))?
A: 2.95 µM

Q: And the CC50 (ACHN [14]; [25])?
A: > 50.1 µM

Q: What about the TGI (ACHN [14]; read-out: pTGI (converted)) of the same molecule?
A: 38.9 µM

Q: And the growth at 50 µM (KM12)?
A: 81%

Q: What about the growth at 5 µM (SK-MEL-28 [15]) of the same molecule?
A: 89%

Q: And the growth at 5 µM (HCT-15 [16])?
A: 88%

Q: What about the growth at 0.5 µM (MCF7) of the same molecule?
A: 94%

Q: And the GI50 (SN12C; read-out: GI50)?
A: 9.09 µM

Q: And the CC50 (SN12C; [24])?
A: > 50 µM

Q: And the TGI (SN12C; read-out: TGI)?
A: > 50 µM

Q: And the GI50 (SN12C; read-out: pGI50 (converted))?
A: 9.12 µM

Q: What about the CC50 (SN12C; [25]) of the same molecule?
A: > 50.1 µM

Q: And the TGI (SN12C; read-out: pTGI)?
A: > 50.1 µM

Q: What about the growth at 50 µM (SF-295 [17]) of the same molecule?
A: 87%

Q: And the growth at 500 µM (NCI-H23)?
A: 78%

Q: And the growth at 5 µM (MDA-MB-231)?
A: 108%

Q: What about the growth at 0.5 µM (DU-145 [18]) of the same molecule?
A: 102%

Q: What about the growth at 0.5 µM (HCT-15 [19]) of the same molecule?
A: 80%

Q: What about the growth at 500 µM (HCC 2998 [20]) of the same molecule?
A: 80%

Q: And the growth at 0.5 µM (ACHN [21])?
A: 98%

Q: What about the growth at 50 µM (BT-549 [22]) of the same molecule?
A: 97%

Q: And the Activity (OVCAR-5)?
A: 89%

Q: What about the GI50 (A498 [23]; read-out: GI50) of the same molecule?
A: 8.05 µM

Q: What about the CC50 (A498 [23]; [24]) of the same molecule?
A: > 50 µM

Q: What about the TGI (A498 [23]; read-out: TGI) of the same molecule?
A: 36.1 µM

Q: What about the GI50 (A498 [23]; read-out: pGI50 (converted)) of the same molecule?
A: 8.13 µM

Q: And the CC50 (A498 [23]; [25])?
A: > 50.1 µM

Q: What about the TGI (A498 [23]; read-out: pTGI (converted)) of the same molecule?
A: 36.3 µM
